From patent US10745408B2, “Biologically active taxane analogs and methods of treatment by oral administration” (Tapestry Pharmaceuticals, Inc., priority 2007, dated 2020)

Assays:
[1] = tested on: bovine microtubule protein; experiment: In vitro ED50 MT polymerization study (DAPI fluorescence tubulin assay); type: biochemical; settings: for ED50 Compound/ED50 Paclitaxel: ratio; for EC50: tubulin polymerization, 37° C. 30 minutes, maximum assembly = 25 μM paclitaxel
Experimental: In Vitro ED50 MT Polymerization Study
In this tubulin binding assay, microtubule protein (MTP) is used as a substrate. The assay contains bovine tubulin plus microtubule associated proteins (MAP). MTP is polymerized into microtubules in the presence of DAPI (4′,6′-diamidino-2-phenylindole), a fluorescent compound. DAPI binds to tubulin; when microtubules are formed and there is an enhancement of fluorescence. The microtubule formation is measured as a function of time, using a fluorescence plate reader. […] The method used is based on the procedure published by Donna M. Barron, et al, “Fluorescence-based high-throughput assay for antimicrotuble drugs” Analytical Biochemistry, 315: 49-56, 2003, which is incorporated by reference in its entirety. The excitation wavelength, in that assay, was set at 370 nm and the emission wavelength was set at 450 nm for the DAPI experiments.
A Bio-Tek FL 600 microplate Fluorescence Reader was used to measure the relative level of fluorescence in the DAPI assay.
Assays were conducted in 96-well plates. Each well contained a total volume of 0.1 mL consisting of PEM buffer (0.1 M Pipes, 1 mM EGTA, 1 mM MgCl2, pH 6.9), 0.2 mg bovine microtubule protein, and 10 μg of DAPI. […] The final DMSO concentration was 4%. The plates were incubated at 37° C. for 30 minutes and read in a fluorescence plate reader using an excitation wavelength of 360 nm and an emission wavelength of 460 nm. Fluorescence values were corrected for the sample without compound.
Experiments were done twice in triplicate. Results were subsequently combined and fit to a non-linear regression program.

[2] = tested on: U251 human CNS tumor cells (glioblastoma); settings: temozolomide 80 mg/kg/dose po q4d×3
Description: Tumor Model: Each animal was implanted with one million U251 human CNS tumor cells from an in vitro cell line by ic injection with a 25 gauge needle. The day of tumor implantation (May 24, 2006) was designated as day 0. A sufficient number of mice were implanted so that animals with body weights in a range as narrow as possible were selected for the trial on the day of treatment initiation (day 1 after tumor implantation). Animals were randomly assigned to the treatment groups and individually identified by earmark codes.
A portion of this solution was then diluted with the complete vehicle to achieve the lower dosing concentration of 1.2 mg/mL. […] Temozolomide (Temodar, Schering Corporation) was prepared on each day of injection in Klucel+tween 80 at a concentration of 4 mg/mL. Temozolomide was administered within 5 minutes of formulation on the basis of exact body weight using a volume of 0.2 mL/10 g of body weight.
Data Collection: Animal health surveillance was conducted and mortality data were collected daily. The animals were weighed twice weekly starting with the first day of treatment.
Study Duration: The study was terminated 100 days after tumor implantation. Any animal found moribund or whose body weight dropped below 14 g was euthanized prior to study termination.
Parameters Evaluated: Number of 100-day survivors, median day of death, and the increase in lifespan based on median day of death and expressed as a percentage (% ILS), median survival time and the % ILS based on median survival time.

Row | Compound | ED50 Compound/ED50 Paclitaxel [1] | EC50 [1] [µM] | ILS based on median survival time [2] [%] | median day of death [2] [days] | median survival time [2] [days] | survivors day 100 [2]
1 | C/C(=C\c1csc(C)n1)[C@@H]1C[C@@H]2O[C@]2(C)CCC[C@H](C)[C@H](O)[C@@H](C)C(=O)C(C)(C)[C@@H](O)CC(=O)O1 [Epothilone B] | 1.11 | 3.31 ± 0.51 |  |  |  | 
2 | Cn1nnc2c(C(N)=O)ncn2c1=O [temozolomide, Temozolomide] |  |  | 400 | 48 | 50 | 100 = 1)
3 | CC(=O)O[C@@]12CO[C@@H]1C[C@H](O)[C@@]1(C)C(=O)[C@H](O)C3=C(C)[C@@H](OC(=O)[C@H](O)[C@@H](NC(=O)OC(C)(C)C)c4ccccc4)C[C@@](O)([C@@H](OC(=O)c4ccccc4)[C@H]21)C3(C)C [Docetaxel] | 1.07 | 3.18 ± 0.45 |  |  |  | 
